Measured values reported in paper PMC8397425, “A Strategy to Conjugate Bioactive Fragments to Cytotoxic Diiron Bis(cyclopentadienyl) Complexes” (Organometallics, 2021).

Target: T1, COX-2 enzyme (Homo sapiens, UniProt P35354)
T1 construct: purchased Cayman Chemical Company
T1 sequence (P35354 18-604): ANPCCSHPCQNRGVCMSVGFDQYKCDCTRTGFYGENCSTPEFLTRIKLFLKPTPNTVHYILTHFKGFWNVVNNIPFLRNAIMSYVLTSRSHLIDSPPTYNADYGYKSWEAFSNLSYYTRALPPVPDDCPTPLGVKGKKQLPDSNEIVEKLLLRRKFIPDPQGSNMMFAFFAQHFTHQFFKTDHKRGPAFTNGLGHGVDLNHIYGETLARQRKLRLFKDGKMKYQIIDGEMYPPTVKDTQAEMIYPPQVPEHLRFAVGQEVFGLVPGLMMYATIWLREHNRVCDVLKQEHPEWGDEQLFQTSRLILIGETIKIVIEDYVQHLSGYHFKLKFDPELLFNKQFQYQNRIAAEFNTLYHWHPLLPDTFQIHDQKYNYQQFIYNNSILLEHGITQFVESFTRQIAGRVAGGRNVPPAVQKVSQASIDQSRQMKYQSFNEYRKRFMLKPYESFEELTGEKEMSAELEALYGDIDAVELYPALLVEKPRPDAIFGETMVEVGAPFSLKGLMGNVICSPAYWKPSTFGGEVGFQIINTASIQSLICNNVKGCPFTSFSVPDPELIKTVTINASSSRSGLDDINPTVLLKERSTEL
Experiment: COX-2 enzyme inhibition assay (fluorimetric)
Type: biochemical
Conditions: residual enzyme activity, 25 °C, pH 8, mean ± SD
Method: Next, the possible role of the bioactive fragment in the complexes was studied.
The IC50 value was obtained using GraphPad Prism 7 software. All of the inhibitor assays were performed at least in triplicate.

IC50: 30 ± 3 µM
Substance: [Fe2Cp2(CO)(μ-CO){μ-η^1:η^3-Cγ(3-C6H4OC(=O)C6H4OC(=O)Me)CβHCαNMe(Xyl)}]CF3SO3 [[4]CF3SO3]
